In US8410078B2, “Composition and methods to treat cardiac diseases” (University of Connecticut, priority 2006, dated 2013):

Key:
cardiac P2X receptor = assay: Whole-cell voltage clamp of P2 agonist-induced current in WT ventricular myocytes; format: cell-based, mouse; conditions: for Inhibition of the 2-meSATP-induced current by P2X receptor antagonists: PPADS 100 μM, NF449 300 nM, Brilliant Blue G 5 μM, ramp −100 to +50 mV
Excerpt: Mice displaying the CSQ model of severe cardiomyopathy and heart failure were bred and maintained by methods known in the art. The CSQ transgenic (TG) mice were originally provided by Dr. Larry Jones (Krannert Institute of Cardiology, Indiana University School of Medicine, Indiana), and developed hypertrophy followed by a lethal heart failure phenotype with death near the age of 3 months. Ventricular myocytes were obtained from 3-month old wild type (WT) and CSQ mice of either sex (26 WT, 47 TG) by an enzymatic dissociation procedure. Briefly, the hearts were rapidly excised from mice that had been anesthetized with pentobarbital and treated with 1000 Units of heparin. The aorta was cannulated and the heart perfused in a Langendorff apparatus with oxygenated (95% O2/5% CO2) Ca^2+-free solution (37° C.) for 5 minutes at a rate of 2.5 ml/min. The solution composition was: 126 mM NaCl, 4.4 mM KCl, 1.0 mM MgCl2, 18 mM NaHCO3, 11 mM Glucose, 4 mM HEPES, and 3 mM BDM (2,3-butanedione monoxime), (pH 7.3 adjusted with NaOH). Thereafter, the perfusing solution was changed to that containing 25 μM CaCl2 and liberase (70 μg/ml, Roche Molecular Biochemicals, Inc.) for 8-10 minutes. Cells were sedimented by gravity for 10-15 minutes and the pellet was resuspended in 200 μM Ca^2+-containing Tyrode's solution (containing 3 mM BDM), allowed to settle for 30 minutes at room temperature, and suspended with Tyrode's solution containing: 135 mM NaCl, 5.4 mM KCl, 1.0 mM CaCl2, 1.0 mM MgCl2, 10 mM HEPES and 10 mM dextrose (pH 7.4 adjusted with NaOH). The experiments were carried out at room temperature (22-23° C.) and were completed within 4-6 hours after myocyte isolation.
The whole cell patch-clamp technique was used for these experiments. Electrodes were prepared from borosilicate glass pipettes (1.2 mm i.d.) with a two step pulling procedure and filled with pipette solution. The pipette was connected via an Ag—AgCl wire to the head stage of an amplifier (List EPC-7, Medical Systems, Greenvale, N.Y.) controlled by a computer and Axon pClamp™ software. For voltage clamp experiments, the electrodes were filled with a solution containing: 135 mM cesium aspartate, 5 mM NaCl, 5 mM Mg2ATP, 10 mM HEPES, and 10 mM EGTA (pH 7.3 adjusted with CsOH) with or without 2 mM GDPβS. Electrode resistances were 2-4 MΩ. As soon as electrical contact was established, the superfusion medium was changed to a modified Tyrode's solution (5.4 mM KCl was omitted and 10 mM CsCl and 5 μM ouabain were added to Tyrode's solution to block K^+ currents and the Na/K pump current, respectively). In quantifying the P2 agonist-induced current, the Tyrode's solution contained the indicated concentration of each agent. In studying the effect of a P2 receptor antagonist, both agonist and antagonist were co-applied at the indicated concentrations. The voltage clamp protocol used was a ramp voltage protocol from −100 mV holding potential to +50 mV. The ramp protocol was applied to cells at 20 s intervals for 1 minute. Three current traces from −100 mV to 50 mV were averaged to construct the I-V relationship.

P2X4R Tg myocytes = assay: Cyclic AMP enzymatic immunoassay in P2X4R Tg myocytes; format: cell-based, mouse; conditions: 10 minutes, 2-meSATP at 10 μM
Procedure: Cyclic AMP was determined with an enzymatic immuno-assay kit (EIA, Direct Biotrak EIA kit) according to manufacturer's instructions. The method has been used to estimate cAMP level in dispersed mammalian cardiac ventricular myocytes. In brief, 3-month P2X4R Tg myocytes were isolated and plated in laminin-coated 96 well plate at a density of 1000 cells/well, equilibrated for 1 hour at 37° C., incubated with either phosphate-buffered saline (pH=7.4) or 10 μM 2-meSATP for 10 minutes, and processed for acetylation and subsequent cAMP EIA. cAMP levels were normalized to proteins in each individual well.

[1] = test system: Binary P2X4 receptor/CSQ transgenic mice; assay: Lifespan of binary P2X4 receptor/CSQ transgenic mice given drug in drinking water; format: in vivo, mouse; conditions: 2 mg/ml in drinking water
Procedure: Metoprolol, a beta-adrenergic receptor blocker, was dissolved in drinking water at a concentration of 2 mg/ml. Binary P2X4 receptor/CSQ transgenic mice were fed either regular drinking water (n=8 mice) or drinking water containing the metoprolol (n=8 mice). […] Because overexpression of the P2X4 receptor rescues calsequestrin mice in a similar manner to MRS2339, administration of a beta blocker such as metoprolol with MRS2339 or another P2X receptor agonist should synergistically increase lifespan.

rat 5′-ectonucleotidase = target: T1, rat 5′-ectonucleotidase (Rattus norvegicus, UniProt P21588); conditions: cited from earlier work
T1 sequence (P21588 29-551): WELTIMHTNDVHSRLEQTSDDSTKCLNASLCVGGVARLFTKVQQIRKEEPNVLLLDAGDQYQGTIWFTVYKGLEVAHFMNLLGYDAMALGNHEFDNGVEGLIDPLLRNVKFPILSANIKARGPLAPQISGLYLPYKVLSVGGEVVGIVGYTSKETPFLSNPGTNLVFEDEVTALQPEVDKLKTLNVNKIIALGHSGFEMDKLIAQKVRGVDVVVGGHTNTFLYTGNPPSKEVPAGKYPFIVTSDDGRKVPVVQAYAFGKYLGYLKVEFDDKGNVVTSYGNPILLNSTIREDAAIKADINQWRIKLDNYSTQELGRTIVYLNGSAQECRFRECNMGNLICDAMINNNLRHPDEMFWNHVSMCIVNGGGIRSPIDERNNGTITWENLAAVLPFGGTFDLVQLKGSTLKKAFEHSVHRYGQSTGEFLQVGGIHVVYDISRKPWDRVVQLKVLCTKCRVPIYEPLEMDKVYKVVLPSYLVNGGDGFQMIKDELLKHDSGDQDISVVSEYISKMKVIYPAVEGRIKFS

## CSc1nc(N)c2ncn([C@@H]3O[C@H](COP(=O)(O)OP(=O)(O)O)[C@@H](O)[C@H]3O)c2n1 [2-meSADP, 2-methylthioADP]
Cardiac P2X receptor; 3 μM, myocytes with a full response to 3 μM 2-meSATP
  Induction of current: failed to induce any current

## CC(C)NCC(O)c1ccc(O)c(O)c1 (stereo not drawn) [isoproterenol]
P2X4R Tg myocytes
  Intracellular cyclic AMP level: 16.6 ± 1.53 pmol/mg

## COCCc1ccc(OCC(O)CNC(C)C)cc1 (stereo not drawn) [Metoprolol]
[1]
  Median lifespan: 491 days

## O=C(Nc1cc(C(=O)Nc2ccc(S(=O)(=O)O)cc2S(=O)(=O)O)cc(C(=O)Nc2ccc(S(=O)(=O)O)cc2S(=O)(=O)O)c1)Nc1cc(C(=O)Nc2ccc(S(=O)(=O)O)cc2S(=O)(=O)O)cc(C(=O)Nc2ccc(S(=O)(=O)O)cc2S(=O)(=O)O)c1 [NF449, 4,4′,4″,4′″-[carbonylbis(imino-5,1,3-benzenetriyl-bis(carbonylimino))]tetrakis-1,3-benzenedisulfonic acid]
Cardiac P2X receptor; 2-meSATP 3 μM
  Inhibition of the 2-meSATP-induced current by P2X receptor antagonists: very little inhibitory effect

## CCOc1ccc(Nc2ccc(/C(=C3C=C/C(=[N+](/CC)Cc4cccc(S(=O)(=O)[O-])c4)C=C/3C)c3ccc(N(CC)Cc4cccc(S(=O)(=O)[O-])c4)cc3C)cc2)cc1.[Na+] [Brilliant Blue G]
Cardiac P2X receptor; 2-meSATP 3 μM
  Inhibition of the 2-meSATP-induced current by P2X receptor antagonists: very little inhibitory effect

## Cc1nc(N=Nc2ccc(S(=O)(=O)O)cc2S(=O)(=O)O)c(COP(=O)(O)O)c(C=O)c1O [PPADS]
Cardiac P2X receptor; 2-meSATP 3 μM
  Inhibition of the 2-meSATP-induced current by P2X receptor antagonists: partially inhibit

## Nc1ncnc2c1ncn2C1C(O)C(O)C2(COP(=O)(O)O)CC12 (stereo not drawn) [(N) methanocarba AMP]
Rat 5′-ectonucleotidase
  Rate of hydrolysis relative to the rate of hydrolysis of AMP: 0.14%

## CNc1nc(I)nc2c1ncn2[C@H]1C[C@H](OP(=O)(O)O)[C@]2(COP(=O)(O)O)C[C@H]12 [MRS2500, (1′R,2′S,4′S,5′S)-4-(2-iodo-6-methylamino-purin-9-yl)-1-[(phosphate)-methyl]-2-(phosphate)-bicyclo[3.1.0]hexane]
Cardiac P2X receptor; MRS2500 1 μM, 2-meSATP 3 μM, WT myocytes
  Block of the current evoked by 2-meSATP: could not block
Cardiac P2X receptor; data not shown
  Block of the current evoked by MRS2339: could not block
